Series [1] deals with A549. The series is described as follows: Potentiation of etoposide-induced apoptosis in NucLight Red-labeled human A549 cells assessed as decrease in cell viability at 10 uM measured for 24 to 72 hrs in presence of etoposide by IncuCyte S3 live cell analysis. The series is classed as functional, cell-based. The settings on record: time 24-72 hrs.
Series [2] concerns A549. Description: Induction of apoptosis in NucLight Red-labeled human A549 cells assessed as decrease in cell viability at 10 uM measured for 24 to 72 hrs by IncuCyte S3 live cell analysis. The following applies: time 24-72 hrs. The series is classed as functional, cell-based.
The target of series [3] is T1, Induced myeloid leukemia cell differentiation protein Mcl-1 (Homo sapiens, UniProt Q07820). Description: Covalent binding affinity to His residues of Mcl-1 in NucLight Red-labeled human A549 cell lysates assessed as stable adduct formation by measuring band shift at 100 uM incubated for 3 hrs by western blot analysis. The series is classed as subcellular.
Series [4] deals with T1, Induced myeloid leukemia cell differentiation protein Mcl-1. Description: Covalent binding affinity to N-terminal His6-tagged human Mcl-1 ligand binding domain (172 to 323 residues) expressed in Escherichia coli BL21(DE3) gold pLysS cells assessed as stable covalent adduct formation by measuring reaction half life at 100 uM incubated for 16 hrs by LC-MS analysis.
Series [5] has the same target. Description: Displacement of biotinylated BH3 peptide from N-terminal His6-tagged human Mcl-1 ligand binding domain (172 to 323 residues) expressed in Escherichia coli BL21(DE3) gold pLysS cells preincubated with protein for 2 hrs followed by incubation with BH3 peptide for 2 hrs by DELFIA assay.
For series [6] the target is unchanged. Description: Covalent binding affinity to N-terminal His6-tagged human Mcl-1 ligand binding domain (172 to 323 residues) expressed in Escherichia coli BL21(DE3) gold pLysS cells assessed as stable covalent adduct formation by measuring reaction half life at 100 uM incubated for 16 hrs by SDS PAGE analysis.
The species entered for series [7] is Homo sapiens. Description: Covalent binding affinity to N-terminal His6-tagged human Mcl-1 ligand binding domain (172 to 323 residues) Lys234Ala mutant expressed in Escherichia coli BL21(DE3) gold pLysS cells assessed as increase in mass of protein at 100 uM incubated for 16 hrs by LC-MS analysis.
In series [8] the target is T2, Bcl-2-related protein A1 (Homo sapiens) (UniProt Q16548).
T2 sequence (whole entry): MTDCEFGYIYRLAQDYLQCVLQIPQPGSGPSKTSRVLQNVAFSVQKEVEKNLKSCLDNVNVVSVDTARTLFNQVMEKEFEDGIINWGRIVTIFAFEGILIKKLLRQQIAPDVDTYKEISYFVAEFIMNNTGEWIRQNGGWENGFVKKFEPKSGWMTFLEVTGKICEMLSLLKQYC
The series is described as follows: Displacement of biotinylated BH3 peptide from N-terminal His6-tagged human Bfl-1 (1 to 149 residues) preincubated with protein for 2 hrs followed by incubation with BH3 peptide for 2 hrs by DELFIA assay. The settings on record: time 4.0 hrs.

Series [9] is filed under the species Homo sapiens. The series is described as follows: Covalent binding affinity to N-terminal His6-tagged human Mcl-1 ligand binding domain (172 to 323 residues) His252Ala mutant expressed in Escherichia coli BL21(DE3) gold pLysS cells assessed as stable covalent adduct formation by measuring band shift at 100 uM incubated for 16 hrs by SDS PAGE analysis.
Series [10] addresses T1, Induced myeloid leukemia cell differentiation protein Mcl-1. Description: Covalent binding affinity to N-terminal His6-tagged human Mcl-1 ligand binding domain (172 to 323 residues) expressed in Escherichia coli BL21(DE3) gold pLysS cells assessed as increase in mass of protein at 100 uM incubated for 16 hrs by LC-MS analysis.
Series [11] relates to A549. The series is described as follows: Induction of apoptosis in NucLight Red-labeled human A549 cells assessed as decrease in cell viability at 50 uM measured for 24 to 72 hrs by IncuCyte S3 live cell analysis. The series is classed as functional, cell-based. The following applies: time 24-72 hrs.
The target of series [12] is T1, Induced myeloid leukemia cell differentiation protein Mcl-1. The series is described as follows: Covalent binding affinity to 15N-labeled human Mcl-1 ligand binding domain (172 to 323 residues) assessed as His252 resonance at 250 uM in presence of BIM BH3 peptide by 2D[15N,1H]HMQC spectroscopy.
Series [13] deals with T2, Bcl-2-related protein A1 (Homo sapiens). The series is described as follows: Covalent binding affinity to N-terminal His6-tagged human Bfl-1 (1 to 149 residues) assessed as band shift at 100 uM incubated for 16 hrs by SDS PAGE analysis.
The target in series [14] is T1, Induced myeloid leukemia cell differentiation protein Mcl-1. The series is described as follows: Covalent binding affinity to His residues of Mcl-1 in intact NucLight Red-labeled human A549 cells assessed as stable adduct formation by measuring band shift at 50 to 100 uM incubated for 12 hrs with treatment replenishment for every 3 hrs by western blot analysis. The series is classed as cell-based. The settings on record: dose 50-100 µM.

For series [15], the species on record is Homo sapiens. The series is described as follows: Covalent binding affinity to N-terminal His6-tagged human Mcl-1 ligand binding domain (172 to 323 residues) Lys234Ala mutant expressed in Escherichia coli BL21(DE3) gold pLysS cells assessed as stable covalent adduct formation by measuring band shift at 100 uM incubated for 16 hrs by SDS PAGE analysis.
In series [16] the test system is A549. The series is described as follows: Potentiation of etoposide-induced apoptosis in NucLight Red-labeled human A549 cells assessed as decrease in cell viability at 50 uM measured for 24 to 72 hrs in presence of etoposide by IncuCyte S3 live cell analysis. The series is classed as functional, cell-based. The settings on record: time 24-72 hrs.
In series [17] the target is T1, Induced myeloid leukemia cell differentiation protein Mcl-1. The series is described as follows: Covalent binding affinity to 15N-labeled human Mcl-1 ligand binding domain (172 to 323 residues) assessed as broadening of binding site His224 resonance at 250 uM in presence of BIM BH3 peptide by 2D[15N,1H]HMQC spectroscopy.
Series [18] deals with A549. The series is described as follows: Induction of cell lysis in NucLight Red-labeled human A549 cells assessed as cell bursting at 100 uM measured after 20 mins by IncuCyte S3 live cell analysis based fluorescence microscopy. The series is classed as toxicity. The following applies: a549, 20 min.
Series [19] deals with T1, Induced myeloid leukemia cell differentiation protein Mcl-1. The series is described as follows: Covalent binding affinity to His252 residue of N-terminal His6-tagged 13C(epsilon)-methionine-labeled human Mcl-1 ligand binding domain (172 to 323 residues) expressed in Escherichia coli BL21(DE3) gold pLysS cells assessed as chemical shift perturbations by measuring 1H methyl resonances for binding site Thr259 and Ile181 residues at 100 uM by 1D 1H-aliphatic NMR spectroscopy.

For series [20] the target is unchanged. Description: Covalent binding affinity to N-terminal His6-tagged human Mcl-1 ligand binding domain (172 to 323 residues) expressed in Escherichia coli BL21(DE3) gold pLysS cells assessed as stable covalent adduct formation by measuring band shift at 100 uM incubated for 16 hrs by SDS PAGE analysis.
For series [21] the target is unchanged. Description: Covalent binding affinity to His252 residue of N-terminal His6-tagged 13C(epsilon)-methionine-labeled human Mcl-1 ligand binding domain (172 to 323 residues) expressed in Escherichia coli BL21(DE3) gold pLysS cells assessed as chemical shift perturbations by measuring 13C/1H methyl resonances for binding site Met250 residue at 100 uM by 2D [1H,13C]-aliphatic NMR spectroscopy.

Structures are written as SMILES. Active and inactive are the calls of the source. The rule behind the calls is not given here. Positions of bridges follow the written chain, without caps; N, C: chain ends. Non-standard residues stand in square brackets, D forms with d. Residues, ends and D or L forms follow the SMILES beside them. *: point of attachment. Benzoyl(2-OMe,5-SO2F) = COc1ccc(S(=O)(=O)F)cc1C(=O)*; S5 = C=CCCC[C@](C)(N)C(=O)O; Dap = NC[C@H](N)C(=O)O

T1 sequence (Q07820 whole entry, the tested form may be a part): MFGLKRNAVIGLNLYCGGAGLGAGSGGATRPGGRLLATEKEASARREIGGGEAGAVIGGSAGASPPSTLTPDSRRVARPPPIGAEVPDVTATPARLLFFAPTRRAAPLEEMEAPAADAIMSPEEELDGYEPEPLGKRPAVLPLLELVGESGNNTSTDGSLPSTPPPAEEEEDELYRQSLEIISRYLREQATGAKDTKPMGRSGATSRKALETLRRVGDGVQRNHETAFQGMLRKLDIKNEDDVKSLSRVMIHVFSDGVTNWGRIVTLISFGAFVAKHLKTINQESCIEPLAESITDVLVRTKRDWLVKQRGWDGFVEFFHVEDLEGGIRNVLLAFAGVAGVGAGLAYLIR

Turning to `Cc1nn(C)c(COc2ccc(N3CCN(S(=O)(=O)N(C)C)CC3)cc2)c1-c1cccc2c(CCCOc3cccc4ccccc34)c(C(=O)O)n(CCN3CCOCC3)c12`, in the series with A549 [1], the result was Active. For the same molecule, the outcome in the series with A549 [2] was inactive.
As to `CC[C@H](C)[C@H](NC(=O)[C@H](CNC(=O)c1cc(S(=O)(=O)F)ccc1OC)NC(C)=O)C(=O)N[C@@H](C)C(=O)N[C@@H](CCC(=O)O)C(=O)N[C@@H](CCC(N)=O)C(=O)N[C@@H](CC(C)C)C(=O)N[C@@H](CCCNC(=N)N)C(=O)N[C@@]1(C)CCC/C=C\CCC[C@@](C)(C(=O)N[C@@H](Cc2ccccc2)C(N)=O)NC(=O)[C@H](CC(=O)O)NC(=O)CNC(=O)[C@H]([C@@H](C)CC)NC1=O` (Ac-[Dap](Benzoyl(2-OMe,5-SO2F))IAEQLR[S5]IGD[S5]F-NH2; staple (Z) 8-12), the result (in series [3]; in the series filed under Homo sapiens [9]; in series [12]; in series [14]; in the series listed under Homo sapiens [15]; with A549 [16]) was Active. In addition, the result in series [17], in series [19], in series [20] and in [21] was Active. Besides, the T1/2 in [4] and in series [6] was 6 h throughout. In series [5], this molecule yielded an IC50 of 18 nM. Moreover, the Activity in the series filed under Homo sapiens [7] is 1740 Da; in series [10], 1740 Da; in the series with A549 [18] it was “Non-Toxic”. Besides, the outcome (in series [8]; in the series with A549 [11]; in series [13]) was inactive.

Source of the values: ChEMBL document CHEMBL5550138, “Histidine-Covalent Stapled Alpha-Helical Peptides Targeting hMcl-1” (J Med Chem, 2024).
